The nature of assay [1]: Inhibition of gp120 in HIV-1 AD8 infected in dog Cf2Th-CD4/CCR5 cells assessed as inhibition of viral entry incubated for 30 mins prior to infection and further incubated for 48 to 72 hrs in presence of firefly D-luciferin free acid and ATP by single-round infection luciferase assay.
Assay [2] can be described thus: Inhibition of gp120 in HIV-1 pseudotyped with A-MLV envelop glycoprotein infected in dog Cf2Th-CD4/CCR5 cells assessed as inhibition of viral entry incubated for 30 mins prior to infection and further incubated for 48 to 72 hrs in presence of firefly D-luciferin free acid and ATP by single-round infection luciferase assay.
Assay [3] is described as follows: Inhibition of gp120 in HIV-1 A4 infected in dog Cf2Th-CD4/CCR5 cells assessed as inhibition of viral entry incubated for 30 mins prior to infection and further incubated for 48 to 72 hrs in presence of firefly D-luciferin free acid and ATP by single-round infection luciferase assay.
A short description of assay [4]: Inhibition of gp120 in HIV-1 191084 infected in dog Cf2Th-CD4/CCR5 cells assessed as inhibition of viral entry incubated for 30 mins prior to infection and further incubated for 48 to 72 hrs in presence of firefly D-luciferin free acid and ATP by single-round infection luciferase assay.

As usually defined, the IC50 is the concentration at which inhibition is half-maximal. With `C=CCC[C@@H]1c2cc(CNC)ccc2[C@H](NC(=O)C(=O)Nc2ccc(Cl)c(F)c2)[C@H]1CNC(=N)N`, the IC50 was 7.4 µM in assay [1] and greater than 300 µM in assay [2].

Take `CNCc1ccc2c(c1)[C@@H](CCCO)[C@H](CNC(=N)N)[C@H]2NC(=O)C(=O)Nc1ccc(Cl)c(F)c1`: the IC50 in assay [1] is 7.7 µM; in assay [2], greater than 300 µM.

On to `CNCc1ccc2c(c1)[C@@H](CCC(O)CO)[C@H](CNC(=N)N)[C@H]2NC(=O)C(=O)Nc1ccc(Cl)c(F)c1` (some centres undefined), for which the IC50 in assay [1] is 3.32 µM; in assay [2], greater than 300 µM; in assay [3] it was 98.9 µM; in assay [4] it was 20.6 µM.

In the case of `CNCc1ccc2c(c1)[C@@H](CCC(=O)CO)[C@H](CNC(=N)N)[C@H]2NC(=O)C(=O)Nc1ccc(Cl)c(F)c1`, the values for the IC50 in assay [1] and in assay [2] were 3.35 µM and greater than 100 µM, respectively.

Take `[H]/N=C(/N)NC[C@H]1[C@H](CC[C@H](O)CO)c2cc(CNC)ccc2[C@@H]1NC(=O)C(=O)Nc1ccc(Cl)c(F)c1`: the IC50 in assay [1] is 0.91 µM; in assay [2], greater than 300 µM.

As for `[H]/N=C(/N)NC[C@H]1[C@H](CC[C@@H](O)CO)c2cc(CNC)ccc2[C@@H]1NC(=O)C(=O)Nc1ccc(Cl)c(F)c1`, the IC50 is 1.6 µM in assay [1] and greater than 300 µM in assay [2].

For `CNCc1ccc2c(c1)[C@H](NC(=O)C(=O)Nc1ccc(Cl)c(F)c1)[C@@H](CNC(=N)N)[C@@H]2CCCO`, the results for the IC50 in assay [1] and in assay [2] were 2.05 µM and greater than 300 µM, respectively.

In the case of `CNCc1ccc2c(c1)[C@H](NC(=O)C(=O)Nc1ccc(Cl)c(F)c1)[C@@H](CNC(=N)N)[C@@H]2CCC(O)CO` (some centres undefined), the IC50 in assay [1] is 0.96 µM; in assay [2], greater than 300 µM.

As for `CNCc1ccc2c(c1)[C@H](NC(=O)C(=O)Nc1ccc(Cl)c(F)c1)[C@@H](CNC(=N)N)[C@@H]2CC[C@H](O)CO`, the IC50 in assay [1] is 2.22 µM; in assay [2], greater than 300 µM.

For `CCCC[C@@H]1c2cc(CNC)ccc2[C@H](NC(=O)C(=O)Nc2ccc(Cl)c(F)c2)[C@H]1CNC(=N)N`, the IC50 in assay [2] is greater than 100 µM.

As to `C=CCC[C@@H]1c2ccc(CNC)cc2[C@H](NC(=O)C(=O)Nc2ccc(Cl)c(F)c2)[C@H]1CNC(=N)N`, the IC50 in assay [2] is greater than 300 µM.

`[H]/N=C(/N)NC[C@H]1Cc2cc(CNC)ccc2[C@@H]1NC(=O)C(=O)Nc1ccc(Cl)c(F)c1`: the results for the IC50 in assay [3] and in assay [4] were 200 µM and 95.9 µM, respectively.
